Experimental data as given in patent US20240206469A1, “PHOSPHORUS USE EFFICIENCY ENHANCERS AS PLANT GROWTH PROMOTORS” (EUROCHEM ANTWERPEN, priority 2021, published 2024).

What was measured:
[1] = test system: SPX1 phosphate starvation biomarker; experiment: Chemical activity assessment with Arabidopsis pSPX1::GUS reporter line (GUS stained area); format: in vivo, Arabidopsis thaliana
Method: All Arabidopsis plant experiments were performed using the Arabidopsis thaliana Columbia-0 background. The Arabidopsis pSPX1::GUS line is described in the Plant Journal 2008, 54: 965-975. For rice, the cultivar Nipponbare was used. For maize, the cultivars DKC 2931 and B104 were used for regular pot experiments and sand-based pot experiments, respectively. For soybean, the cultivar Primus was used. […] The medium was solidified due to the addition of 0.6% Gelrite, unless stated otherwise. In case of vertical plates (root length and root hair measurements), the medium was supplied with 0.5% of sucrose and 1 μM (low phosphate, 1 μM KH2PO4, 9.9 mM KCl), 10 μM (low phosphate 10 μM KH2PO4, 9.9 mM KCl) or 1.25 mM KH2PO4 (high phosphate). Arabidopsis seeds were stratified for 2 days at 4° C. before germination. Seedlings were germinated in climate-controlled growth chambers at 22° C. under continuous light (100 μmol m^−2 s^−1). Husked rice seeds were germinated on wetted Whatman paper for 2 days at 37° C. and then transferred to Sterivent boxes or square Petri dishes with solid medium. Maize and soybean seeds were wetted 24 hours at room temperature prior to sowing in pots.
For the chemical activity assessment 3 to 8 seeds per well of Arabidopsis pSPX1::GUS line were sown in 96-well plates containing 150 μl of low phosphate modMS liquid medium containing 1% of sucrose. Compounds were added in 50 μM concentration, starting from a 5 mM stock of compounds solved in DMSO. Different chemical substances were separately added to different wells. Per plate, 16 control wells were used, 8 containing only the low phosphate medium and 1% DMSO, and 8 containing high phosphate medium and 1% DMSO. 7 days after germination, plates were scanned using a flatbed scanner (EPSON Expression 11000XL) and analyzed for leaf size. After scanning, the growth medium was replaced by GUS staining solution (see Plant Mol. Biol. Rep. 1994, 12: 37-42 for details) and incubated for 1.5 hours at 37° C. The plates were scanned a second time and analyzed for GUS signal area. Measurements of both leaf area and GUS signal area were conducted by filtering out and measure the green and blue signal, respectively using ImageJ software. If the green leaf area was 50% or less than the control, samples were omitted. Additionally, all results were visually screened for leaf size and GUS signal.

Arabidopsis = experiment: Anthocyanin quantification, Arabidopsis 96-well plate; format: in vivo, Arabidopsis thaliana; settings: low phosphate, 50 μM, 7 days after germination, control = 1
Method: Col-0 ecotype Arabidopsis seeds were sown in 96-well plates containing 150 μl of low phosphate modMS liquid medium containing 1% of sucrose. Compounds was added in 50 μM concentration (1% DMSO). Eight plants per repeat were collected 7 days after germination and put into a fresh Eppendorf. Extraction and quantification of anthocyanin levels was carried out according to The Plant cell 2013, 25:1641-1656. Anthocyanin levels were quantified by measuring absorption at 530 and 657 nm using a spectrophotometer and normalized to fresh weight input, and expressed relative to the low phosphate control. For pot experiments, the same procedure was followed with one 4-week old plant per sample.

Maize B104 = experiment: Long-term maize pot experiment, B104 (PHENOVISION); format: in vivo, maize cultivar B104
Method: Regular Arabidopsis, soybean and maize pot experiments used an unfertilized potting soil, which was supplemented at the start of the experiment with 50 ml H2O containing 0.25 g/l NH4NO3 and 0.44 g/l (high phosphate) or no (maize and soybean) or 0.11 g/l KH2PO (Arabidopsis) for low phosphate conditions. For the sand-based maize pot experiment, sand was supplemented with 50 ml H2O containing 0.25 g/l NH4NO3 and 0.38 g/l (high phosphate) or 0.02 g/l (low phosphate) KH2PO4. Potassium was balanced via addition of KCl. Compound concentration was 10 μM, calculated based on the total water content after watering, and was added at the start of the experiment (Arabidopsis) or once a week (maize). Indexed chlorophyll contents were received via a SPAD 502 Plus Chlorophyll Meter. All parameters in the sand experiment, except the rate of leaf 4 (measured the first 4 days after emergence), were measured 19 days after sowing. Measurements in the pot experiments with potting soil were done after 4 weeks of growth, except for leaf 5, which was measured at 26 days. One long-term maize pot experiment was conducted with the DKC 2931 (2.5 months) and B104 (3 months) cultivars on the PHENOVISION phenotyping platform as described in Frontiers in Plant Science 2021, 12: 640914, except that an unfertilized potting soil was used and that plants were fertilized with a low-phosphate Hoagland solution. The 2.5× overconcentrated low-phosphate Hoagland solution contained 0.034 g/l KH2PO and 200 mL of this solution was applied twice a week. 1.4 mL of a 10 mM compound solution was added each two weeks to each pot, corresponding to 9.6 mg/g nutrients. 13 plants per condition were used. During the experiment, pictures were taken twice a week for each plants from 6 different angles and the top. Pictures were used to extract the plant height and to extract the projected plant area from each side and calculate an estimated plant volume over time.

Question: What does the source list for `CC1CN(CC(=O)c2c(N)n(C)c(=O)n(C)c2=O)c2ccccc2O1` (stereo not shown) [Compound 8, 6-amino-1,3-dimethyl-5-[2-(2-methyl-2,3-dihydro-1,4-benzoxazin-4-yl)acetyl]pyrimidine-2,4-dione]?
Answer: Suppression of the SPX1 biomarker (GUS staining) ([1]; 7 days of growth in low phosphate, confirmed in two experimental repeats): practically completely suppressed the SPX1 biomarker; GUS (SPX1) stained area normalized to the number of seeds ([1]; low phosphate, 50 μM, 7 days after germination, compare with low phosphate controls of same plate (Table 5 c3)): 26 pixels; Relative anthocyanin level (Arabidopsis): 0.6; Plant height (Maize B104; B104, day 15, control 230): 220 mm; Estimated volume (Maize B104; B104, day 15, control 311): 292 cm^3; Plant height (Maize B104; B104, day 19, control 246): 239 mm; Estimated volume (Maize B104; B104, day 19, control 465): 441 cm^3; Plant height (Maize B104; B104, day 22, control 291): 288 mm; Estimated volume (Maize B104; B104, day 22, control 548): 565 cm^3; Plant height (Maize B104; B104, day 26, control 351): 368 mm; Estimated volume (Maize B104; B104, day 26, control 623): 689 cm^3; Plant height (Maize B104; B104, day 27, control 416): 364 mm; Estimated volume (Maize B104; B104, day 27, control 637): 552 cm^3; Plant height (Maize B104; B104, day 29, control 412): 411 mm; Estimated volume (Maize B104; B104, day 29, control 788): 877 cm^3; Plant height (Maize B104; B104, day 33, control 424): 428 mm; Estimated volume (Maize B104; B104, day 33, control 1146): 1368 cm^3; Plant height (Maize B104; B104, day 36, control 472): 485 mm; Estimated volume (Maize B104; B104, day 36, control 1405): 1735 cm^3; Plant height (Maize B104; B104, day 40, control 507): 547 mm; Estimated volume (Maize B104; B104, day 40, control 1673): 2117 cm^3; Plant height (Maize B104; B104, day 43, control 551): 587 mm; Estimated volume (Maize B104; B104, day 43, control 1795): 2363 cm^3; Plant height (Maize B104; B104, day 47, control 609): 657 mm; Estimated volume (Maize B104; B104, day 47, control 2268): 2844 cm^3; Plant height (Maize B104; B104, day 50, control 633): 692 mm; Estimated volume (Maize B104; B104, day 50, control 2874): 3518 cm^3; Plant height (Maize B104; B104, day 54, control 544): 564 mm; Estimated volume (Maize B104; B104, day 54, control 3143): 3857 cm^3; Plant height (Maize B104; B104, day 57, control 572): 569 mm; Estimated volume (Maize B104; B104, day 57, control 3365): 4216 cm^3; Plant height (Maize B104; B104, day 61, control 572): 609 mm; Estimated volume (Maize B104; B104, day 61, control 3936): 5052 cm^3; Plant height (Maize B104; B104, day 63, control 514): 529 mm; Estimated volume (Maize B104; B104, day 63, control 3808): 4933 cm^3; Plant height (Maize B104; B104, day 68, control 566): 593 mm; Estimated volume (Maize B104; B104, day 68, control 4585): 5837 cm^3; Plant height (Maize B104; B104, day 71, control 611): 629 mm; Estimated volume (Maize B104; B104, day 71, control 4957): 5962 cm^3; Plant height (Maize B104; B104, day 75, control 569): 627 mm; Estimated volume (Maize B104; B104, day 75, control 5016): 6099 cm^3; Plant height (Maize B104; B104, day 78, control 590): 662 mm; Estimated volume (Maize B104; B104, day 78, control 5551): 6540 cm^3; Plant height (Maize B104; B104, day 82, control 626): 685 mm; Estimated volume (Maize B104; B104, day 82, control 5788): 6751 cm^3; Plant height (Maize B104; B104, day 85, control 677): 707 mm; Estimated volume (Maize B104; B104, day 85, control 5957): 6623 cm^3; Plant height (Maize B104; B104, day 89, control 697): 733 mm; Estimated volume (Maize B104; B104, day 89, control 5717): 6434 cm^3; Average number of ears (Maize B104; Maize pot long term B104, 3 months, low phosphate, control 0.3): 0.7; Shoot weight (Maize B104; Maize pot long term B104, low phosphate, control 28): 32 g; Leaf 6 (Maize B104; Maize pot long term B104, low phosphate, control 48): 50 cm
